Experimental data from the supplement of paper PMC10627819.

Assays:
Test in all cases: Bliss interaction score (quartile over a dose matrix) (fitness difference); higher = more antagonism (negative = synergy)
S. aureus DSM 20231 = system: S. aureus DSM 20231
Method in brief: (§1)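 The Bliss score is observed fitness minus expected fitness, where the expected value is the product of single-drug fitness values inferred from combination data. Fitness is OD595 at entry into stationary phase normalised to the plate's robust no-drug mean and capped at 1. Scores are reported as quartiles spanning technical, biological and donor/recipient replicates.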

S. aureus Newman = system: S. aureus Newman
Method in brief: as §1

S. pneumoniae D39V = system: S. pneumoniae D39V
Method in brief: as §1

B. subtilis 168 = system: B. subtilis 168
Method in brief: as §1
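Further: first quartile when negative (synergy) and third quartile when positive (antagonism).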

| Compound | Bliss interaction score (S. aureus DSM 20231) | Bliss interaction score (S. aureus Newman) | Bliss interaction score (S. pneumoniae D39V) | Bliss interaction score (B. subtilis 168) |
| --- | --- | --- | --- | --- |
| CC[C@H]1OC(=O)[C@H](C)[C@@H](O[C@H]2C[C@@](C)(OC)[C@@H](O)[C@H](C)O2)[C@H](C)[C@@H](O[C@@H]2O[C@H](C)C[C@H](N(C)C)[C@H]2O)[C@](C)(O)C[C@@H](C)CN(C)[C@H](C)[C@@H](O)[C@]1(C)O [Azithromycin] + CC(=O)O[C@H]1C[C@@]2(C)[C@@H](C[C@@H](O)[C@H]3[C@@]4(C)CC[C@@H](O)[C@@H](C)[C@@H]4CC[C@@]32C)/C1=C(\CCC=C(C)C)C(=O)O [Fusidic acid] | -0.0342 | 0.0362 | -0.0761 | -0.119 |
| CC[C@H]1OC(=O)[C@H](C)[C@@H](O[C@H]2C[C@@](C)(OC)[C@@H](O)[C@H](C)O2)[C@H](C)[C@@H](O[C@@H]2O[C@H](C)C[C@H](N(C)C)[C@H]2O)[C@](C)(O)C[C@@H](C)CN(C)[C@H](C)[C@@H](O)[C@]1(C)O [Azithromycin] + CC[C@H]1OC(=O)[C@H](C)C(=O)[C@H](C)[C@@H](O[C@@H]2O[C@H](C)C[C@H](N(C)C)[C@H]2O)[C@](C)(OC)C[C@@H](C)C(=O)[C@H](C)[C@H]2N(CCCCn3cnc(-c4cccnc4)c3)C(=O)O[C@]12C [Telithromycin] | -0.0311 | -0.0389 | 0.0272 | 0.0342 |
| CC[C@H]1OC(=O)[C@H](C)[C@@H](O[C@H]2C[C@@](C)(OC)[C@@H](O)[C@H](C)O2)[C@H](C)[C@@H](O[C@@H]2O[C@H](C)C[C@H](N(C)C)[C@H]2O)[C@](C)(O)C[C@@H](C)CN(C)[C@H](C)[C@@H](O)[C@]1(C)O [Azithromycin] + CC[C@H]1OC(=O)[C@H](C)[C@@H](O[C@H]2C[C@@](C)(OC)[C@@H](O)[C@H](C)O2)[C@H](C)[C@@H](O[C@@H]2O[C@H](C)C[C@H](N(C)C)[C@H]2O)[C@](C)(O)C[C@@H](C)C(=O)[C@H](C)[C@@H](O)[C@]1(C)O [Erythromycin] | -0.056 | -0.0668 | 0.0539 | -0.0754 |
| CC[C@H]1OC(=O)[C@H](C)[C@@H](O[C@H]2C[C@@](C)(OC)[C@@H](O)[C@H](C)O2)[C@H](C)[C@@H](O[C@@H]2O[C@H](C)C[C@H](N(C)C)[C@H]2O)[C@](C)(O)C[C@@H](C)CN(C)[C@H](C)[C@@H](O)[C@]1(C)O [Azithromycin] + CC[C@H]1OC(=O)[C@H](C)[C@@H](O[C@H]2C[C@@](C)(OC)[C@@H](O)[C@H](C)O2)[C@H](C)[C@@H](O[C@@H]2O[C@H](C)C[C@H](N(C)C)[C@H]2O)[C@](C)(OC)C[C@@H](C)C(=O)[C@H](C)[C@@H](O)[C@]1(C)O [Clarithromycin] | -0.107 | -0.0536 | -0.0473 | -0.0578 |
| CC[C@H]1OC(=O)[C@H](C)[C@@H](O[C@H]2C[C@@](C)(OC)[C@@H](O)[C@H](C)O2)[C@H](C)[C@@H](O[C@@H]2O[C@H](C)C[C@H](N(C)C)[C@H]2O)[C@](C)(O)C[C@@H](C)CN(C)[C@H](C)[C@@H](O)[C@]1(C)O [Azithromycin] + CN(C)[C@@H]1C(O)=C(C(N)=O)C(=O)[C@@]2(O)C(O)=C3C(=O)c4c(O)ccc(Cl)c4[C@@](C)(O)[C@H]3C[C@@H]12 [Clortetracycline] | -0.243 | -0.192 | -0.084 | -0.344 |
| CC[C@H]1OC(=O)[C@H](C)[C@@H](O[C@H]2C[C@@](C)(OC)[C@@H](O)[C@H](C)O2)[C@H](C)[C@@H](O[C@@H]2O[C@H](C)C[C@H](N(C)C)[C@H]2O)[C@](C)(O)C[C@@H](C)CN(C)[C@H](C)[C@@H](O)[C@]1(C)O [Azithromycin] + CN[C@H](CC(C)C)C(=O)N[C@H]1C(=O)N[C@@H](CC(N)=O)C(=O)N[C@H]2C(=O)N[C@H]3C(=O)N[C@H](C(=O)N[C@H](C(=O)O)c4cc(O)cc(O)c4-c4cc3ccc4O)[C@H](O[C@H]3C[C@](C)(N)[C@@H](O)[C@H](C)O3)c3ccc(c(Cl)c3)Oc3cc2cc(c3O[C@@H]2O[C@H](CO)[C@@H](O)[C@H](O)[C@H]2O[C@H]2C[C@](C)(NCc3ccc(-c4ccc(Cl)cc4)cc3)[C@@H](O)[C@H](C)O2)Oc2ccc(cc2Cl)[C@H]1O [Oritavancin] | -0.0405 | -0.0766 | 0.0492 | 0.0325 |
| CC[C@H]1OC(=O)[C@H](C)[C@@H](O[C@H]2C[C@@](C)(OC)[C@@H](O)[C@H](C)O2)[C@H](C)[C@@H](O[C@@H]2O[C@H](C)C[C@H](N(C)C)[C@H]2O)[C@](C)(O)C[C@@H](C)CN(C)[C@H](C)[C@@H](O)[C@]1(C)O [Azithromycin] + CO[C@@]12[C@H](COC(N)=O)C3=C(C(=O)C(C)=C(N)C3=O)N1C[C@@H]1N[C@@H]12 [MitomycinC] | -0.0652 | 0.0499 | -0.0779 | 0.116 |
| CC[C@H]1OC(=O)[C@H](C)[C@@H](O[C@H]2C[C@@](C)(OC)[C@@H](O)[C@H](C)O2)[C@H](C)[C@@H](O[C@@H]2O[C@H](C)C[C@H](N(C)C)[C@H]2O)[C@](C)(O)C[C@@H](C)CN(C)[C@H](C)[C@@H](O)[C@]1(C)O [Azithromycin] + CO[C@H]1/C=C/O[C@@]2(C)Oc3c(C)c(O)c4c(O)c(c(/C=N/N5CCN(C)CC5)c(O)c4c3C2=O)NC(=O)/C(C)=C\C=C\[C@H](C)[C@H](O)[C@@H](C)[C@@H](O)[C@@H](C)[C@H](OC(C)=O)[C@@H]1C [Rifampicin] | 0.0531 | 0.0263 | -0.0821 | 0.0851 |
| CC[C@H]1OC(=O)[C@H](C)[C@@H](O[C@H]2C[C@@](C)(OC)[C@@H](O)[C@H](C)O2)[C@H](C)[C@@H](O[C@@H]2O[C@H](C)C[C@H](N(C)C)[C@H]2O)[C@](C)(O)C[C@@H](C)CN(C)[C@H](C)[C@@H](O)[C@]1(C)O [Azithromycin] + C[C@@H](O)[C@H]1C(=O)N2C(C(=O)O)=C(SCCNC=N)C[C@H]12 [Imipenem] | -0.0324 | -0.0196 | 0.0485 | 0.105 |
| CC[C@H]1OC(=O)[C@H](C)[C@@H](O[C@H]2C[C@@](C)(OC)[C@@H](O)[C@H](C)O2)[C@H](C)[C@@H](O[C@@H]2O[C@H](C)C[C@H](N(C)C)[C@H]2O)[C@](C)(O)C[C@@H](C)CN(C)[C@H](C)[C@@H](O)[C@]1(C)O [Azithromycin] + Clc1ccc(COC(Cn2ccnc2)c2ccc(Cl)cc2Cl)c(Cl)c1 [Miconazole] | -0.0368 | 0.0828 | 0.0855 | 0.0679 |
| CC[C@H]1OC(=O)[C@H](C)[C@@H](O[C@H]2C[C@@](C)(OC)[C@@H](O)[C@H](C)O2)[C@H](C)[C@@H](O[C@@H]2O[C@H](C)C[C@H](N(C)C)[C@H]2O)[C@](C)(O)C[C@@H](C)CN(C)[C@H](C)[C@@H](O)[C@]1(C)O [Azithromycin] + N[C@@H]1CONC1=O [CycloserineD] | -0.103 | 0.0743 | 0.135 | 0.0718 |
| CC[C@H]1OC(=O)[C@H](C)[C@@H](O[C@H]2C[C@@](C)(OC)[C@@H](O)[C@H](C)O2)[C@H](C)[C@@H](O[C@@H]2O[C@H](C)C[C@H](N(C)C)[C@H]2O)[C@](C)(O)C[C@@H](C)CN(C)[C@H](C)[C@@H](O)[C@]1(C)O [Azithromycin] + O=C1CN(/N=C/c2ccc([N+](=O)[O-])o2)C(=O)N1 [Nitrofurantoin] | -0.0881 | -0.0835 | -0.215 | -0.117 |
| CC[C@H]1OC(=O)[C@H](C)[C@@H](O[C@H]2C[C@@](C)(OC)[C@@H](O)[C@H](C)O2)[C@H](C)[C@@H](O[C@@H]2O[C@H](C)C[C@H](N(C)C)[C@H]2O)[C@](C)(O)C[C@@H](C)CN(C)[C@H](C)[C@@H](O)[C@]1(C)O [Azithromycin] + O=C(O)[C@H]1/C(=C/CO)O[C@@H]2CC(=O)N21 [Clavulanic] | -0.136 | 0.239 | -0.0573 | 0.115 |
| CC[C@H]1OC(=O)[C@H](C)[C@@H](O[C@H]2C[C@@](C)(OC)[C@@H](O)[C@H](C)O2)[C@H](C)[C@@H](O[C@@H]2O[C@H](C)C[C@H](N(C)C)[C@H]2O)[C@](C)(O)C[C@@H](C)CN(C)[C@H](C)[C@@H](O)[C@]1(C)O [Azithromycin] + Oc1cc(Cl)ccc1Oc1ccc(Cl)cc1Cl [Triclosan] | -0.133 | -0.0316 | -0.0322 | -0.0359 |
| CC1=C(C(=O)O)N2C(=O)[C@@H](NC(=O)[C@H](N)c3ccccc3)[C@H]2SC1 [Cephalexin] + CC1(C)S[C@@H]2[C@H](NC(=O)Cc3ccccc3)C(=O)N2[C@H]1C(=O)O [PenicillinG] | -0.0449 | -0.0472 | -0.199 | 0.0543 |
